Test results reported in patent US7572768B2, “Methods for identifying compounds for regulating muscle mass or function using corticotropin releasing factor receptors” (priority 2001, dated 2009).

Columns and labels:
[1] = system: disuse-induced atrophy of skeletal muscle; experiment: mouse leg casting disuse atrophy model; format: in vivo; conditions: ten days
Description: (§1) Legend: A—physiological saline (control); B—theophylline; C—sauvagine (0.03 mg/kg)+theophylline; D—sauvagine (0.1 mg/kg)+theophylline; E—sauvagine (0.3 mg/kg)+theophylline; *—p≦0.05 compared to saline. Following casting of the right hind leg, male mice were injected subcutaneously in the midscapular region twice daily, with sauvagine or vehicle control (physiological saline) for ten days at the daily delivered dose indicated. Sauvagine was co-administered with twice daily intra-peritoneal dosing of the phosphodiesterase inhibitor theophylline (30 mg/kg). On day ten, the medial gastrocnemius and tibialis anterior muscles were removed and weighed to determine the degree of atrophy.
as §1, with “B—urocortin” for “B—theophylline; C—sauvagine (0.03 mg/kg)+theophylline; D—sauvagine (0.1 mg/kg)+theophylline; E—sauvagine”, “urocortin” for “sauvagine”, “days. Urocortin was administered” for “days”, “doses indicated in the description of FIGS. 6A and 6B. Urocortin” for “daily delivered dose indicated. Sauvagine”
Legend: A—non casted muscle control; B—casted muscle, saline control; C—casted muscle, sauvagine (0.3 mg/kg)+theophylline (30 mg/kg); *—p≦0.05 compared to saline. Following casting of the right hind leg, male mice were injected subcutaneously in the midscapular region twice daily, with either sauvagine or vehicle control (physiological saline) for ten days at the doses indicated above. Sauvagine was co-administered 30 mg/kg theophylline. On day ten, the EDL and soleus muscles were removed and absolute force and mass measurements taken to determine the degree of atrophy.
The leg casting disuse atrophy model involves casting one hind leg of an animal from the knee down through the foot. Typically, muscle mass is reduced 20-40% after ten days of casting. Following casting, test compounds are administered by injection or by continuous infusion via implantation of an osmotic minipump (e.g., Alzet, Palo Alto, Calif.) to determine their effect on leg casting induced skeletal muscle atrophy. At various times following leg casting, the extent of atrophy in the affected muscles is analyzed as described above for the denervation model.
The extensor digitorum longus (EDL) and soleus muscles are removed, tendon-to-tendon from the casted mouse leg. A silk suture is tied to each tendon of the isolated muscles and the muscles are placed into a plexiglass chamber filled with Ringer solution (137 mM sodium chloride, 24 mM sodium bicarbonate, 11 mM glucose, 5 mM potassium chloride, 1 mM magnesium sulfate, 1 mM sodium phosphate, 0.025 mM tubocurarine, all at pH 7.4 and oxygenated with 95% oxygen/5% carbon dioxide) constantly bubbled with 95% oxygen/5% carbon dioxide maintained at 25° C. Muscles are aligned horizontally between a servomotor lever arm (Model 305B-LR Cambridge Technology Inc., Watertown Mass., USA) and the stainless steel hook of a force transducer (Model BG-50; Kulite Semiconductor Products Inc., Leonia, N.J., USA) and field stimulated by pulses transmitted between two platinum electrodes placed longitudinally on either side of the muscle. Square wave pulses (0.2 ms duration) generated by a personal computer with a Labview board (Model PCI-MIO 16E-4), Labview Inc., Austin, Tex., USA) are amplified (Acurus power amplifier model A25, Dobbs Ferry, N.Y., USA) to increase titanic contraction. Stimulation voltage and muscle length (Lo) are adjusted to obtain maximum isometric twitch force. Maximum titanic force production (Po) is determined from the plateau of the frequency-force relationship.

[2] = system: denervation-induced atrophy of skeletal muscle; experiment: adrenalectomized rat sciatic nerve denervation-induced atrophy model; format: in vivo; conditions: male adrenalectomized rats, 0.003-0.03 mg/kg s.c. twice daily + 30 mg/kg theophylline, nine days
Description: Legend: A—physiological saline (control); B—sauvagine (0.003 mg/kg)+theophylline; C—sauvagine (0.01 mg/kg)+theophylline; D—sauvagine (0.03 mg/kg)+theophylline; #—p≦0.05 compared to corresponding controls. Following denervation of the right sciatic nerve, male adrenalectomized rats (adrenalectomized rats were used to remove the skeletal muscle atrophy-inducing effects of activation of the HPA axis via agonisms of the CRF1R) were injected subcutaneously in the midscapular region twice daily, with either sauvagine or vehicle control (physiological saline) for nine days at the doses shown above. Sauvagine was co-administered with 30 mg/kg theophylline. On day nine, the tibialis anterior, extensor digitorum longus (EDL), soleus, medial gastrocnemius, and plantaris muscles were removed and weighed to determine the degree of atrophy.
The sciatic nerve denervation atrophy model involves anesthetizing the animal followed by the surgical removal of a short segment of either the right or left sciatic nerve, e.g., in mice the sciatic nerve is isolated approximately at the midpoint along the femur and a 3-5 mm segment is removed. This denervates the lower hind limb musculature resulting in atrophy of these muscles. Typically, innervation to the biceps femoris is left intact to provide satisfactory motion of the knee for virtually normal ambulation. Typically, in untreated animals, muscle mass of the denervated muscles is reduced 30-50% ten days following denervation. Following denervation, test compounds are administered e.g., by injection or by continuous infusion, e.g., via implantation of an osmotic minipump (e.g., Alzet, Palo Alto, Calif.), to determine their effect on denervation induced skeletal muscle atrophy. At various times following denervation, the animals are euthanized and lower leg muscles are dissected rapidly from both the denervated and nondenervated legs, the muscles, cleaned of tendons and connective tissue, are weighed. The extent of atrophy in the affected muscles is analyzed, for example, by measuring muscle mass, muscle cross-sectional area, myofiber cross-sectional area or contractile protein content.

[3] = FIG. 9A, male mice, 0.3 mg/kg s.c. twice daily + theophylline 30 mg/kg

## CC[C@H](C)[C@H](NC(=O)[C@@H](NC(=O)[C@H](CC(=O)O)NC(=O)[C@H](CC(C)C)NC(=O)[C@H](CC(C)C)NC(=O)[C@H](CC(C)C)NC(=O)[C@H](CCCNC(=N)N)NC(=O)[C@H](CC(N)=O)NC(=O)[C@H](CC(N)=O)NC(=O)[C@H](C)NC(=O)[C@H](C)NC(=O)[C@H](CCC(N)=O)NC(=O)[C@H](CCC(N)=O)NC(=O)[C@H](CCCCN)NC(=O)[C@H](CCC(=O)O)NC(=O)[C@H](CCCCN)NC(=O)[C@H](CCC(=O)O)NC(=O)[C@H](CCC(N)=O)NC(=O)[C@H](CCCCN)NC(=O)[C@H](CCC(=O)O)NC(=O)[C@@H](NC(=O)[C@H](CCC(=O)O)NC(=O)[C@@H](NC(=O)[C@H](CCSC)NC(=O)[C@H](CCCCN)NC(=O)[C@H](CCCNC(=N)N)NC(=O)[C@H](CC(C)C)NC(=O)[C@H](CC(C)C)NC(=O)[C@H](CCC(=O)O)NC(=O)[C@H](CC(C)C)NC(=O)[C@H](CO)NC(=O)[C@H](CC(C)C)NC(=O)[C@H](CC(=O)O)NC(=O)[C@@H](NC(=O)[C@H](CO)NC(=O)[C@@H](NC(=O)[C@@H]1CCCN1C(=O)[C@@H]1CCCN1C(=O)CNC(=O)[C@@H]1CCC(=O)N1)[C@@H](C)CC)[C@@H](C)CC)[C@@H](C)CC)[C@@H](C)CC)[C@@H](C)O)C(N)=O [sauvagine]
[1]; FIG. 4A, casted leg, male mice, 0.03-0.3 mg/kg s.c. twice daily + theophylline 30 mg/kg i.p.
  disuse-induced atrophy of the tibialis anterior muscle (muscle weight): inhibits disuse-induced atrophy
[1]; FIG. 4A, non-casted leg, 0.03-0.3 mg/kg s.c. twice daily + theophylline 30 mg/kg i.p.
  hypertrophy of the tibialis anterior muscle of the non-casted leg: statistically significant hypertrophy
[1]; FIG. 4B, casted leg, male mice, 0.03-0.3 mg/kg s.c. twice daily + theophylline 30 mg/kg i.p.
  disuse-induced atrophy of the medial gastrocnemius muscle (muscle weight): inhibits disuse-induced atrophy
[1]; FIG. 4B, non-casted leg, 0.03-0.3 mg/kg s.c. twice daily + theophylline 30 mg/kg i.p.
  hypertrophy of the medial gastrocnemius muscle of the non-casted leg: statistically significant hypertrophy
[1]; [3]
  disuse-induced loss of EDL muscle mass: inhibits disuse-induced loss
  disuse-induced loss of soleus muscle mass: inhibits disuse-induced loss
[1]; FIG. 9B, EDL and soleus muscles, 0.3 mg/kg s.c. twice daily + theophylline 30 mg/kg
  loss of muscle function as assessed by measurement of absolute force: inhibits loss of muscle function
[2]; FIG. 7A
  denervation-induced atrophy of the tibialis anterior muscle (muscle weight): inhibits denervation-induced atrophy
[2]; FIG. 7B
  denervation-induced atrophy of the EDL muscle (muscle weight): inhibits denervation-induced atrophy
  hypertrophy of the non-denervated EDL muscle: statistically significant hypertrophy
[2]; FIG. 7C
  denervation-induced atrophy of the soleus muscle (muscle weight): inhibits denervation-induced atrophy
[2]; FIG. 7D
  denervation-induced atrophy of the medial gastrocnemius muscle (muscle weight): inhibits denervation-induced atrophy
[2]; FIG. 7E
  denervation-induced atrophy of the plantaris muscle (muscle weight): inhibits denervation-induced atrophy
